Data taken from patent US9040714B2 (MannKind Corporation, priority 2010, dated 2015).
Where two headings read alike, the source gives them in different places.

Key:
[1] = system: IRE-1α-mediated XBP-1 splicing in human myeloma MM.1s cells; assay: Cellular EC50: endogenous XBP-1 splicing in myeloma cells by RT-PCR (DTT stress); assay type: cell-based; conditions: MM1.S, read-out: EC50_av
Protocol: Human myeloma MM.1s cells are incubated with a compound for 1.25 hours before stressing the cells with 2 mM dithiothreitol (DTT). After an additional 45 minutes (2 hours total) with compound and DTT, the cells are harvested with TRIZOL® (a mono-phasic solution of phenol and guanidine isothiocyanate), and total RNA is prepared as directed by the manufacturer (Invitrogen). Human XBP-1 is amplified by RT-PCR with the following primers, which flank the 26 base unconventional intron excised by IRE-1α:
RT-PCR of unstressed (U) cells then generates the upper band. When cells are stressed (S) with the endoplasmic reticulum (ER) stressing agent DTT, IRE-1α is activated due to accumulating unfolded protein and the resulting RT-PCR, product is 26 base pairs shorter.
Compounds which pass specificity assays are assayed for cellular EC50 using endogenous XBP-1 splicing in myeloma cells. XBP-1 is regulated through the excision of a 26 nucleotide intron from the XBP-1 mRNA by the highly specific endoribonuclease activity of IRE-1α. […] This splicing event is used to measure IRE-1α activity on XBP-1 mRNA in cells and tissues.
Briefly, compounds are incubated in the presence or absence of an ER stress agent (e.g., DTT), and the ratio of XBP-1u (unspliced) to XBP-1 s (spliced) is quantified by RT-PCR. The ED50 is determined as the 50% XBP-1s to total XPB-1 levels.

[2] = target: human IRE-1α (GST-IRE-1α) (Homo sapiens (Human), UniProt O75460); assay: IRE-1α assay in vitro: cleavage of Cy5/BHQ2-labelled mini-XBP-1 mRNA stem-loop substrate; assay type: biochemical; conditions: average IC50 for inhibition of IRE-1α
Protocol: In some embodiments IRE-la inhibitor compounds form a complex with IRE-1α. […] Other substrates also can be used to detect cleavage. See US 2007/0105123.
A fusion protein comprising glutathione S transferase (GST) and human IRE-1α (GST-IRE-1α) obtained from a 500 ml baculovirus-infected insect cell culture can be used to measure IRE-1α activity in vitro.
Five μl of a reaction mixture comprising IX reaction buffer (5× reaction buffer is 100 mM Hepes pH 7.5, 250 mM KOAc, 2.5 mM MgCl2), 3 mM DTT, and 0.4% polyethylene glycol water is added to each well of 384 well plates. Twenty-five nanoliters of a 1 mM test compound solution are added to test wells. Three μl of a […] IRE-1α preparation are added to each test well and to positive control wells (final concentration 5.82 ng/well). Negative control wells contain only reaction mixture and test compound.
After spinning the plates at 1200 rpm for 30 seconds, 3 μl of an IRE-1α human mini-XBP-1 mRNA stem-loop substrate 5′-[…]-3′ (SEQ ID NO:1), labeled with the fluorescent dye Cy5 at the 5′ end and Black Hole Quencher 2 (BH2) at the 3′ end, are added to each well of a control plate. The plates are again spun at 1200 rpm for 30 seconds. Final concentrations for the assay are: 63 nM IRE-1α substrate, 5.82 ng IRE-1α protein, and 2.5 μM test compound.
The plates are covered with lids and incubated for one hour at 30° C. The plates are then transferred to an ACQUEST™ microplate reader. Data is analyzed using data analysis software, and the percent activity of IRE-1α is calculated.
IC50 for inhibition of IRE-1α of compounds identified in Table 1 was measured as described in EXAMPLE 35.

[3] = average cellular EC50, XBP-1 splicing in myeloma cells

Sequence of human IRE-1α (GST-IRE-1α) (O75460 19-977): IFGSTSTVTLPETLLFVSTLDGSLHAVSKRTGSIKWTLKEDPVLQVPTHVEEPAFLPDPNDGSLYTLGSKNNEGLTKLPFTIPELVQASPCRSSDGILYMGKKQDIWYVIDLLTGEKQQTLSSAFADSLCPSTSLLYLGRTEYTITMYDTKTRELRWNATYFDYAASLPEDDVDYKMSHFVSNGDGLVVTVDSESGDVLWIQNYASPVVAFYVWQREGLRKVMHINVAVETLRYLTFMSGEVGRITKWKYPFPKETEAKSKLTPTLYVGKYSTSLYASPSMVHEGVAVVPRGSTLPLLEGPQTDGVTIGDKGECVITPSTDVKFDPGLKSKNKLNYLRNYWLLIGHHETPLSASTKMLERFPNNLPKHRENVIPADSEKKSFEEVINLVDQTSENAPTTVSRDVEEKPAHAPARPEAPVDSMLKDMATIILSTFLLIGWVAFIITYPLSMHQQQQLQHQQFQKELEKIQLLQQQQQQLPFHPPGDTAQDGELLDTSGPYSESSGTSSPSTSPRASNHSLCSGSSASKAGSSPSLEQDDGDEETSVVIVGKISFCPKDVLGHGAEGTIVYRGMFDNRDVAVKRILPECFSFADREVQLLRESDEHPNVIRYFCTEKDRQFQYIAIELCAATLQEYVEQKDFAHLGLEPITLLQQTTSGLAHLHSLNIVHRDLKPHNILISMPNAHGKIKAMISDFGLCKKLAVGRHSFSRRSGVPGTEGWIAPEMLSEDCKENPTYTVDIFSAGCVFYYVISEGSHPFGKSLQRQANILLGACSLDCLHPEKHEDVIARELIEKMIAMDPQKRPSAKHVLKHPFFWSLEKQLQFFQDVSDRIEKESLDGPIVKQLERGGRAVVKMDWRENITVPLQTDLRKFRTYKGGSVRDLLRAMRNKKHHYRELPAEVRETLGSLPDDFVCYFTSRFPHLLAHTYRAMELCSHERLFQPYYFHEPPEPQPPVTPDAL

| SMILES | EC50 [1, 3] [µM] | IC50 [2] [µM] | EC50 [1] [µM] |
| --- | --- | --- | --- |
| COCCOc1cc2c(C)c(CCC(=O)N3CCOCC3)c(=O)oc2c(C=O)c1O [Example 181] | < 10 | < 0.1 |  |
| CCOC(=O)c1sc(-c2cc3ccc(O)c(C=O)c3oc2=O)nc1C [Example 68] | < 10 | < 0.1 |  |
| COc1cc2c(C)c(C)c(=O)oc2c(C=O)c1O [Example 199] | > 10 | < 0.1 |  |
| COc1cc2c(C)c(C(C)C)c(=O)oc2c(C=O)c1O [Example 200] |  | < 0.1 | > 10 |
| COc1cc2c(C)c(-c3ccc(C(=O)N4CCOCC4)s3)c(=O)oc2c(C=O)c1O [Example 142] | < 10 | < 0.1 |  |
| O=Cc1c(O)ccc2nc(SCC(=O)O)[nH]c12 [Example 63] | > 10 | < 0.1 |  |
| COc1cc2c(C)c(CC(=O)N3CCN(C)CC3)c(=O)oc2c(C=O)c1O [Example 168] | < 10 | < 0.1 |  |
| COC(=O)c1cccc(-c2nc3ccc(O)c(C=O)c3[nH]2)c1 [Example 65] |  | < 0.1 | < 10 |
| COCCNC(=O)CCc1c(COC)c2cc(OC)c(O)c(C=O)c2oc1=O [Example 138] | > 10 | < 1 |  |
| Cc1c(-c2ccc(C(=O)NCCN3CCOCC3)cc2)c(=O)oc2c(C=O)c(O)c(Cl)cc12 [Example 151] | > 10 | < 1 |  |
| COc1cc2c(C(F)(F)F)cc(=O)oc2c(C=O)c1O [Example 197] | < 10 | < 1 |  |
| COc1cc2c(C)c(CCC(=O)N3CCN(C)CC3)c(=O)oc2c(C=O)c1O [Example 173] |  | < 0.1 | < 10 |
| Cc1c(CC(=O)N2CCN(C)CC2)c(=O)oc2c(C=O)c(O)ccc12 [Example 130] |  | < 0.1 | < 10 |
| Cc1c(CC(=O)O)c(=O)oc2c(C=O)c(O)ccc12 [Example 70] |  | < 0.1 | > 10 |
| Cc1c(-c2ccc(N3CCN(C)CC3)cc2)c(=O)oc2c(C=O)c(O)c(F)cc12 [Example 24] | < 10 | < 0.1 |  |
| COc1cc2c(C)c(-c3ccc(N4CCN(C)CC4)nc3)c(=O)oc2c(C=O)c1O [Example 113] |  | < 0.1 | < 10 |
| CCOC(=O)Cc1c(C)c2cc(OC)c(O)c(C=O)c2oc1=O [Example 131] |  | < 0.1 | < 10 |
| CN1CCN(C(=O)c2cccc(-c3ccc4c(C=O)c(O)ccc4n3)c2)CC1 [Example 42] | < 10 | < 1 |  |
| COc1cc2c(C)c(CC(=O)NCCN(C)C)c(=O)oc2c(C=O)c1O [Example 170] | < 10 | < 1 |  |
| Cc1c(/C=C/C(=O)N2CCN(C)CC2)c(=O)oc2c(C=O)c(O)ccc12 [Example 112] | < 10 | < 0.1 |  |
| COCCOc1cc(O)c(C=O)c2oc(=O)c(CCC(=O)NCCN(C)C)c(C)c12 [Example 157] | > 10 | < 1 |  |
| COCc1cc(=O)oc2c(C=O)c(O)c(OC)cc12 [Example 136] | < 10 | < 1 |  |
| COCCNC(=O)CCc1c(C)c2c(OCCOC)cc(O)c(C=O)c2oc1=O [Example 152] | < 10 | < 1 |  |
| COCCNC(=O)CCc1c(C)c2cc(OC)c(O)c(C=O)c2oc1=O [Example 171] |  | < 0.1 | < 10 |

| SMILES | EC50 [1, 3] [µM] | IC50 [2] [µM] | EC50 [1] [µM] |
| --- | --- | --- | --- |
| COc1cc2c(C)c(-c3ccc(C(=O)N4CCN(C)CC4)s3)c(=O)oc2c(C=O)c1O [Example 141] | < 10 | < 0.1 |  |
| COc1cc2c(C)c(-c3ccc(N(C)C)nc3)c(=O)oc2c(C=O)c1O [Example 115] | < 10 | < 1 |  |
| Cc1nc(N2CCc3c(ccc(O)c3C=O)C2)sc1C(=O)NC1CCNCC1 [Example 35] | > 10 | < 0.1 |  |
| Cc1nc(-c2c(C)c3ccc(O)c(C=O)c3oc2=O)sc1C(=O)N1CCN(C)CC1 [Example 110] |  | < 1 | < 10 |
| COc1cc2c3c(c(=O)oc2c(C=O)c1O)CCC3 [Example 198] |  | > 1 | < 10 |
| Cc1c(-c2ccc(C(=O)N3CCOCC3)cc2)c(=O)oc2c(C=O)c(O)c(Cl)cc12 [Example 67] | > 10 | < 1 |  |
| CCc1cc2c(C)c(-c3ccc(C(=O)NCCOC)cc3)c(=O)oc2c(C=O)c1O [Example 118] | < 10 | < 0.1 |  |
| Cc1nc(-c2cc3ccc(O)c(C=O)c3oc2=O)sc1C(=O)N1CCN(C)CC1 [Example 108] | < 10 | < 0.1 |  |
| CN1CCN(C(=O)c2cnc(N3CCc4c(ccc(O)c4C=O)C3)s2)CC1 [Example 33] |  | < 10 | > 10 |
| CCc1cc2c(=O)c(-c3nc(C)cs3)coc2c(C=O)c1O [Example 39] | > 10 | < 0.1 |  |
| COCCOc1cc(O)c(C=O)c2oc(=O)c(CCC(=O)N3CCOCC3)c(C)c12 [Example 153] | < 10 | < 0.1 |  |
| COc1cc2c(C)c(-c3ccc(C(=O)N4CCN(C)CC4)cc3)c(=O)oc2c(C=O)c1O [Example 111] | < 10 | < 0.1 |  |
| COc1cc2c(C)c(CCC(=O)NCCO)c(=O)oc2c(C=O)c1O [Example 147] | > 10 | < 0.1 |  |
| COCc1c(CCC(=O)N2CCOCC2)c(=O)oc2c(C=O)c(O)c(OC)cc12 [Example 139] | < 10 | < 0.1 |  |
| O=Cc1c(O)ccc2c1CCN(Cc1ccccc1)C2 [Example 28] | > 10 | < 10 |  |
| COc1cc2c(C)c(CCC(=O)NCCN(C)C)c(=O)oc2c(C=O)c1O [Example 175] | > 10 | < 1 |  |
| COc1cc(O)c(C=O)c2oc(=O)c(CCC(=O)NCCN3CCOCC3)c(C)c12 [Example 196] | < 10 | < 0.1 |  |
| COCCNC(=O)Cc1c(C)c2c(OC)cc(O)c(C=O)c2oc1=O [Example 176] | < 10 | < 0.1 |  |
| O=Cc1c(O)ccc2nc(-c3ccc(C(=O)NCCN4CCOCC4)cc3)ccc12 [Example 45] | < 10 | < 1 |  |
| COc1cc2c(C)c(-c3ccc(N4CCOCC4)nc3)c(=O)oc2c(C=O)c1O [Example 114] | < 10 | < 1 |  |
| CCc1cc2c(C)c(-c3ccc(C(=O)NCCN4CCOCC4)cc3)c(=O)oc2c(C=O)c1O [Example 117] |  | < 1 | < 10 |
| CCOC(=O)c1cnc(-c2cc3ccc(O)c(C=O)c3oc2=O)s1 [Example 106] | < 10 | < 0.1 |  |
| Cc1nc(N2CCc3c(ccc(O)c3C=O)C2)sc1C(=O)NC1CCN(C)CC1 [Example 36] | > 10 | < 1 |  |
